In article PMC10449632, “Structural basis for translation inhibition by the glycosylated drosocin peptide” (Nature Chemical Biology, 2023):
No end group written: not given here. *: point of attachment. β‑D‑cellobiosyl = OC[C@H]1O[C@@H](O[C@H]2[C@H](O)[C@@H](O)[C@H](*)O[C@@H]2CO)[C@H](O)[C@@H](O)[C@@H]1O; β‑D‑lactosyl = OC[C@H]1O[C@@H](O[C@H]2[C@H](O)[C@@H](O)[C@H](*)O[C@@H]2CO)[C@H](O)[C@@H](O)[C@H]1O; β‑D‑maltosyl = OC[C@H]1O[C@H](O[C@H]2[C@H](O)[C@@H](O)[C@H](*)O[C@@H]2CO)[C@H](O)[C@@H](O)[C@@H]1O; α‑D‑GlcNAc = CC(=O)N[C@@H]1[C@@H](O)[C@H](O)[C@@H](CO)O[C@@H]1*; βGlc = OC[C@H]1O[C@@H](*)[C@H](O)[C@@H](O)[C@@H]1O; βGal = OC[C@H]1O[C@@H](*)[C@H](O)[C@@H](O)[C@H]1O

Legend:
[1] = test system: in vitro translation, E. coli PURExpress system, firefly luciferase (Fluc) mRNA; details: using the same system; cited from earlier work
Method: Unmodified wild-type drosocin and Dro-3P have been reported to inhibit in vitro translation reactions[25],[26]; however, the naturally occurring glycosylated forms of drosocin have not been previously tested. To investigate this, we compared the effect of increasing concentrations (0–150 μM) of modified Dro1 and Dro2 with unmodified Dro, Dro-3P and Api137 using a cell-free in vitro translation system and firefly luciferase (Fluc) mRNA as a template (Fig. 1e), as we have used previously for assessing the activity of other PrAMPs[4],[6],[8],[9],[32],[33].

[2] = test system: E. coli Keio wt (BW25113); test: Antibiotic susceptibility (growth) assay, E. coli Keio wild-type; assay type: cell-based, Escherichia coli; details: 30 μM peptide; for Average of normalized growth: average of three biological replicates; for growth inhibition in rich medium: rich (LB) medium
Description: (§1) Many PrAMPs use the SbmA transporter to pass through the E. coli inner membrane[4],[10],[31]; however, whether drosocin also uses SbmA remains, to our knowledge, unknown. To address this, we monitored the effect of the presence of diverse drosocin peptides (Fig. 1a,b and Supplementary Fig. 1a) on the growth of the wild-type E. coli strain BW25113 containing SbmA or lacking SbmA (ΔsbmA) (Fig. 1c,d). We compared unmodified drosocin (Dro) with various modified forms (Fig. 1a,b). The modified forms included the naturally occurring Dro1 and Dro2 that carry either a monosaccharide (α-D-GalNAc) or disaccharide (β-D-Gal(1→3)-α-D-GalNAc) attached to Thr11, respectively (Fig. 1b). In addition, we examined the previously reported[23],[24] drosocin derivatives bearing β-D-Maltosyl (Dro3), α-D-GlcNAc (Dro4), β-D-Gal (Dro5), β-D-Glc (Dro6), β-D-Lactosyl (Dro7) and β-D-Cellobiosyl (Dro8) modifications on Thr11 (Fig. 1a,b and Supplementary Fig. 1a). Finally, we also included in our analysis the synthetic unmodified drosocin derivative with proline substitutions at positions 7, 11 and 12 (Dro-3P) (Fig. 1a), which was previously reported to have similar antimicrobial activity to the monosaccharide form of drosocin[25]. Growth was monitored in both rich (LB) and minimal medium in the presence of 30 μM of each peptide and normalized with the growth in the absence of the compounds (Methods). […] We also observed no inhibition for Dro2 nor for any of the β-linked disaccharides (Dro3, Dro6 or Dro7). […] By contrast, all drosocin peptides inhibited growth of the E. coli BW25113 strain in minimal medium, albeit to different extents (Fig. 1d).
(§2) Strains E. coli Keio wild-type and E. coli Keio ΔsbmA used from the Keio knockout collection (Horizon, https://horizondiscovery.com). Wild-type E. coli SQ110 (ΔrrnGADBHC(ptRNA67))[47] and SQ171 (ΔrrnGADEHBC(pKK3535, ptRNA67))[47] strains and related mutants E. coli SQ110 A2059G and E. coli SQ171 A2503G were obtained from the previous Api137 study. E. coli strains SQ171 bearing A752G, U2609C and A752G:U2609C mutations[43] and E. coli SQ171 U2609G[48] were generated previously.
(§3) The susceptibility of E. coli strains to compounds was evaluated by monitoring the bacterial growth in presence of increasing concentrations of the compound of interest. In brief, bacteria were inoculated in a total volume of 100 μl of medium contained in a well of a 96-well microplate (round bottom, with cap, sterile; Sarstedt). The medium used was either LB, as rich medium, or ATCC medium (778 Davis and Mingioli glucose minimal medium), as minimal medium. Before inoculation, bacteria were grown up to exponential phase and then inoculated into the culture mix, containing selective antibiotic if necessary, with an initial optical density at 600 nm (OD600) of 0.05. Values measured from wells containing just the medium were used as a blank. The growth in each well was monitored by measuring the OD600 every 10 minutes for a total of 20 hours at 37 °C with shaking using a plate reader (Tecan Infinite 200 PRO). The inhibition resulting from a compound’s concentration was evaluated by normalizing the OD600 at t = 12 hours (corresponding to the end of the log phase) from the treated culture to the untreated one. For each compound, the concentrations tested were 5 μM, 10 μM and 30 μM. Each single titration assay was done in triplicate with individually prepared culture mixes. For each concentration, the standard deviation was calculated, taking into account each single replica and its specific technical error from the plate reader.

[3] = test system: ribosomes at the stop codon of MLIF-UAA mRNA in the presence of RF1; test: Toeprinting assay on MLIF*-mRNA with RF1; assay type: biochemical, Escherichia coli; details: for Relative stop band intensity signal: 30 μM compound, MLIF*-mRNA, plotted values
Method: (§4) To ascertain which step during protein synthesis is affected by drosocin, we performed toeprinting assays, where reverse transcription is used to monitor the position of ribosomes on a defined mRNA[34].
(§5) Toeprinting reactions were performed as described previously. In brief, reactions were performed with 6 μl of PURExpress ΔRF123 in vitro protein synthesis system (NEB) in the presence of 1× RF3 and either 1× or 10× of RF1 or RF2 (relative to the manufacturer’s recommendation). The reactions were carried out on an MLIF-UAA-toeprint template (5′-[…]-3′, ORF start codon and stop codon are underlined bold), containing T7 promoter, a ribosome binding site, an MLIF-coding ORF and the NV1* primer binding site. The template is a version of the ErmBL template with a truncated ORF and addition of a isoleucine coding codon at the third position in the ORF. The template was generated by polymerase chain reaction of two overlapping 77-nt- and 78-nt-long primers. The reactions contained 30 ng of the MLIF-UAA-toeprint DNA template. The reactions were supplemented with Api137, thiostrepton or one of the drosocin derivates as specified. The transcription–translation reactions were incubated for 15 minutes at 37 °C. The reverse transcription on the MLIF-short-UAA toeprint template was carried out using AMV RT and primer NV*1-Alexa 647 (5′-[…]-3′). The transcription–translation reactions were incubated with AMV RT and NV*1-Alexa 647 for 20 minutes at 37 °C. mRNA degradation was carried out by the addition of 1 µl of 5 M NaOH. The reactions were neutralized with 0.7 µl of 25% HCl, and nucleotide removal was performed with the QIAquick Nucleotide Removal Kit (Qiagen). The samples were dried under vacuum for 2 hours at 60 °C for subsequent gel electrophoresis. The 6% acrylamide gels were scanned on a Typhoon scanner (GE Healthcare).

[4] = test system: ribosomes at the stop codon of MLIF-UAA mRNA in the presence of RF2; test: Toeprinting assay on MLIF*-mRNA with RF2; assay type: biochemical, Escherichia coli; details: Fig 1h, RF2 (10X), 30 μM compound, plotted values
Method: as §4, §5

[5] = test system: in vitro translation, E. coli PURExpress system, firefly luciferase (Fluc) mRNA; test: In vitro translation assay with Fluc reporter; assay type: biochemical, Escherichia coli
Method: To investigate this, we compared the effect of increasing concentrations (0–150 μM) of modified Dro1 and Dro2 with unmodified Dro, Dro-3P and Api137 using a cell-free in vitro translation system and firefly luciferase (Fluc) mRNA as a template (Fig. 1e), as we have used previously for assessing the activity of other PrAMPs[4],[6],[8],[9],[32],[33].
The in vitro translation assay was carried out as described previously[4],[8] using the E. coli PURExpress system (New England Biolabs (NEB), E6800S). Then, 1 µl of antibiotic solution was added to 5 µl of PURExpress reaction mix. Each reaction contained 10 ng μl^−1 of mRNA encoding the Fluc, which was in vitro transcribed from a pIVEX-2.3MCS vector containing the Fluc gene using T7 polymerase (Thermo Fisher Scientific). The reaction mix was incubated for 30 minutes at 32 °C while shaking (600 r.p.m.). Reactions were stopped with 5 µl of kanamycin (50 mg ml^−1) and transferred into a 96-well microplate (Greiner Lumitrac, non-binding, white, chimney). Next, 40 µl of luciferase assay substrate solution (Promega, E1501) was added, and luminescence was measured using a plate reader (Tecan Infinite 200 PRO). Nuclease-free water was added instead of antibiotic as control. Absolute luminescence values were normalized using reactions without antibiotic. All assays were done as triplicates with individually prepared reaction mix.

[6] = test system: E. coli Keio ∆sbmA (BW25113 ΔsbmA); test: Antibiotic susceptibility (growth) assay, E. coli Keio ΔsbmA; assay type: cell-based, Escherichia coli; details: 30 μM peptide, average of three biological replicates
Description: as §1, §2, §3

Row | Substance | IC50 [1] | Average of normalized growth ([2]; LB rich medium) | Average of normalized growth ([2]; Minimal medium) | growth inhibition in rich medium [2] | Relative stop band intensity signal ([3]; Fig 1f, RF1 (1X)) | Relative stop band intensity signal ([3]; Fig 1g, RF1 (10X)) | Relative stop band intensity signal [4] | maximum inhibition of in vitro translation ([5]; at the highest concentration tested of 150 μM, Fluc mRNA, luminescence) | Average of normalized growth ([6]; LB rich medium) | Average of normalized growth ([6]; Minimal medium) | stalling of ribosomes at the stop codon ([3]; toeprinting, 30 μM peptide, 1× or 10× RF1 (trend also with ten-fold RF2)) | activity in in vitro translation assays ([5]; Fluc reporter, increasing concentrations of peptide)
1 | Bac7: type I PrAMP of mammalian origin (RRIRPRPPRLPRPRPRPLPFPRPGPRPIPRPLPFPRPGPRPIPRPLPFPRPGPRPIPRP; Bactenecin 7; UniProt P19661 131-189, looked up) | < 1 µM |  |  |  |  |  |  |  |  |  |  | 
2 | Dro2: naturally occurring drosocin carrying disaccharide β-D-Gal(1→3)-α-D-GalNAc attached to Thr11 (GKPRPYSPRPTSHPRPIRV; not fully specified (residue 11); UniProt P36193 22-40, looked up) |  | 92% | 25% | no inhibition | 0.3007 | 0.625 | 0.06699 | 40% | 96% | 101% |  | 
3 | Dro3: drosocin derivative bearing β-D-Maltosyl on Thr11 (GKPRPYSPRPT(β‑D‑maltosyl)SHPRPIRV; UniProt P36193 22-40, looked up) |  | 97% | 41% | no inhibition | 0.2727 | 0.5086 | 0.02902 |  | 97% | 105% |  | 
4 | Dro4: drosocin derivative bearing α-D-GlcNAc on Thr11 (GKPRPYSPRPT(α‑D‑GlcNAc)SHPRPIRV; UniProt P36193 22-40, looked up) |  | 60% | 38% | growth inhibition | 0.3375 | 0.6077 | 0.166 |  | 97% | 103% | to a lesser extent | 
5 | Dro5: drosocin derivative bearing β-D-Gal on Thr11 (GKPRPYSPRPT(βGal)SHPRPIRV; UniProt P36193 22-40, looked up) |  | 93% | 24% | no inhibition | 0.2051 | 0.5557 | 0.04941 |  | 100% | 107% |  | 
6 | Dro6: drosocin derivative bearing β-D-Glc on Thr11 (GKPRPYSPRPT(βGlc)SHPRPIRV; UniProt P36193 22-40, looked up) |  | 94% | 72% | no inhibition | 0.04582 | 0.4077 | 0.01282 |  | 99% | 106% |  | 
7 | Dro7: drosocin derivative bearing β-D-Lactosyl on Thr11 (GKPRPYSPRPT(β‑D‑lactosyl)SHPRPIRV; UniProt P36193 22-40, looked up) |  | 97% | 50% | no inhibition | 0.1333 | 0.3035 | 0.0472 |  | 101% | 109% |  | 
8 | Dro8: drosocin derivative bearing β-D-Cellobiosyl on Thr11 (GKPRPYSPRPT(β‑D‑cellobiosyl)SHPRPIRV; UniProt P36193 22-40, looked up) |  | 97% | 85% |  | 0.1518 | 0.3011 | 0.03669 |  | 102% | 112% |  | 
9 | Dro-R18A (GKPRPYSPRPTSHPRPIAV; ends and bridges not checked; UniProt P36193 22-40, looked up, variant R18A) |  |  |  |  |  |  |  |  |  |  |  | complete loss of activity
